{"source": "patent US10548829B2", "about": "“Oral care compositions and methods of use” (priority 2016, dated 2020)", "test_system": "HaCaT cells", "test": "Scratch assay, cell migration/proliferation \"wound healing\"", "assay_type": "cell-based, human", "details": "0.1 mM in 1% DMSO complete media", "experimental": "Cell Culture: Spontaneously immortalized human keratinocyte line, HaCaT cells (AddexBio, San Diego, Calif., cat # T0020001) were cultured in 25 cm^2 vented, Falcon canted tissue culture flasks (VWR, Radnor, Pa., cat #353108) using complete DMEM media (Life Technologies, Grand Island, N.Y., cat #11965-092) supplemented with 10% characterized Hyclone FBS (VWR, Radnor, Pa., cat #1677-014) and 1× Penicillin—Streptomycin (Life Technologies, Grand Island, N.Y., cat #15140122). The cultures were incubated at 37° C. and 5% CO2 until the cells reached around 70-80% confluence. […]\nAssay sample preparation: Samples were prepared in a final concentration of 1% DMSO in complete media. […] Two different batches of product 5 were tested at 0.15 mM, the average % Growth Relative to day 0 (d0) was determined and presented in FIG. 20. […]\nQuantifying cell migration/wound healing: To explore the effects of various actives on cell migration/wound healing, the size of the freshly generated wound (the gap size) was determined following treatment using an inverted microscope (Olympus 1X71, Olympus Scientific Solutions Americas, Waltham, Mass.) and Cellsens Dimension 1.11 (Olympus Corporation, Waltham, Mass.) software and monitored until the gap closed completely. […] The mean of each arm was determined for each day of the study until the wound heal and no gap existed. […]"}
{"smiles": "C[C@@H]1O[C@@H](O[C@H]2[C@H](Oc3cc(O)c4c(c3)O[C@H](c3ccc(O)cc3)CC4=O)O[C@H](CO)[C@@H](O)[C@@H]2O)[C@H](O)[C@H](O)[C@H]1O", "note": "[Naringin]", "values": [{"measurement": "wound healing, % growth relative to d0 (in words)", "value": "not significantly different from that of Zinc acetate"}]}
